# Experimental data as given in patent publication US10537521B2 (priority 2016, dated 2020).
# Like-named read-outs stand apart in the source and are kept apart here.
# Legend:
# [1] = after oral administration of tramadol (single dose of 100 mg); cited from earlier work
# [2] = Example 1: multiple-dose randomized 3-way crossover PK study of two IV tramadol regimens vs 100 mg oral q6h; conditions: mean; for AUCtau n: last dosing interval
# Protocol: A fitted curve was obtained because the second oral peak was not measured in the study. For the modeling portion of the analysis, a validated Phoenix® WinNonlin® program version 6.4 (Certara) was used for PK analysis, simulation, graphics, tables and statistical calculations. […] For purposes of nonlinear regression, the data were weighted as 1/observed. Predicted concentration-time data were calculated based on the individual fitted PK parameters.
# [3] = test system: patients undergoing abdominal surgery; conditions: initial tramadol 100 mg or morphine 5 mg i.v., repeat tramadol 50 mg or morphine 5 mg on demand; cited from earlier work
# [4] = test system: postoperative pain; conditions: after 4 to 6 hours; IV or IM intermittent injection, dose titrated to pain response; cited from earlier work
# [5] = test system: experienced opioid abusers; conditions: tramadol 100 and 200 mg IV, cited from earlier work
# [6] = Example 4: multiple dose steady-state dose proportionality study, tramadol injection 50/100 mg IV and Ultram tablet 50/100 mg oral q6h; format: in vivo, human; conditions: steady-state, healthy volunteers
# Protocol: The study was an open-label, single-period, randomized, parallel treatment design. Subjects received study drug every 6 hours beginning on the morning of Day 1 and ending on the morning of Day 3. The first dose on Day 1 and the last dose on Day 3 were administered after a minimum 10 hour fast.
# [7] = tramadol single […] [100 mg] p.o., humans N=12 male; cited from earlier work
# [8] = 50 mg IV regimen (h 0, 2, 4, then q4h to h 44), plasma
# [9] = 75 mg IV regimen (h 0, 3, 6, then q6h to h 42)
# [10] = 75 mg IV regimen (h 0, 3, 6, then q6h to h 42), plasma
# [11] = 100 mg oral q6h to h 42, plasma
# [12] = Tramadol dosed as 50 mg IV every 6 hours
# [13] = Tramadol dosed as 50 mg Oral (Ultram tablet) every 6 hours
# [14] = Tramadol dosed as 100 mg IV every 6 hours
# [15] = Tramadol dosed as 100 gm Oral (Ultram tablet) every 6 hours
compound,measurement,setting,value
CN(C)C[C@H]1CCCC[C@]1(O)c1cccc(O)c1 [O-desmethyltramadol],half-life,[1],approximately 6.7 hours
same,Cmax(0-2),"[2]; 50 mg IV regimen (h 0, 2, 4, then q4h to h 44), first dose, plasma",17.1 ng/mL
same,RAC(trough),"[2]; 50 mg IV regimen (h 0, 2, 4, then q4h to h 44)",5.2872
same,AUC0-24,[2]; [8],1425 ng·h/mL
same,AUC0-48,[2]; [8],3427 ng·h/mL
same,AUC24-48,[2]; [8],2002 ng·h/mL
same,C2,[2]; [8],16.9 ng/mL
same,C48 (T48),[2]; [8],81.7 ng/mL
same,C1 h,[2]; [8],11.8 ng/mL
same,Cmax(2-4),[2]; [8],37.8 ng/mL
same,Css,[2]; [8],88.9 ng/mL
same,Tmax,[2]; [8],44.95 h
same,Tmax(0-2),[2]; [8],1.85 h
same,Tmax(2-4),[2]; [8],3.95 h
same,Tmax(44-48),[2]; [8],45.31 h
same,Cmax(0-3),"[2]; 75 mg IV regimen (h 0, 3, 6, then q6h to h 42), first dose, plasma",29.7 ng/mL
same,AUCtau n,[2]; [9],519.8 ng·h/mL
same,RAC(trough),[2]; [9],2.7237
same,AUC0-24,[2]; [10],1608 ng·h/mL
same,AUC0-48,[2]; [10],3504 ng·h/mL
same,AUC24-48,[2]; [10],1896 ng·h/mL
same,C3,[2]; [10],29.5 ng/mL
same,C48 (T48),[2]; [10],75.9 ng/mL
same,C1 h,[2]; [10],19.9 ng/mL
same,Cmax(3-6),[2]; [10],59.4 ng/mL
same,Css,[2]; [10],86.6 ng/mL
same,Tmax,[2]; [10],32.99 h
same,Tmax(0-3),[2]; [10],2.71 h
same,Tmax(3-6),[2]; [10],5.81 h
same,Tmax(42-48),[2]; [10],43.10 h
same,Cmax(0-6),"[2]; 100 mg oral q6h to h 42, first dose, plasma",60.3 ng/mL
same,AUCtau n,[2]; 100 mg oral q6h to h 42,768.4 ng·h/mL
same,RAC(trough),[2]; 100 mg oral q6h to h 42,2.7839
same,AUC0-24,[2]; [11],1655 ng·h/mL
same,AUC0-48,[2]; [11],4349 ng·h/mL
same,AUC24-48,[2]; [11],2693 ng·h/mL
same,C6,[2]; [11],42.3 ng/mL
same,C48 (T48),[2]; [11],111 ng/mL
same,C1 h,[2]; [11],41.4 ng/mL
same,Cmax,[2]; [11],146 ng/mL
same,Css,[2]; [11],128 ng/mL
same,Tmax,[2]; [11],43.97 h
same,Tmax(0-6),[2]; [11],2.04 h
same,Tmax(42-48),[2]; [11],43.97 h
same,Cmax(42-48),"[2]; 100 mg oral q6h to h 42, steady-state, plasma",146 ng/mL
CN1CC[C@]23c4c5ccc(O)c4O[C@H]2[C@@H](O)C=C[C@H]3[C@H]1C5 [morphine],responder rate (no or slight pain) within the first 90 minutes of treatment,[3],81.2%
same,reduction of pain intensity,[4],69.8%
same,ratings of “liking”,"[5]; morphine 10 and 20 mg IV, over 5 minutes, 10 experienced opioid abusers",significantly increased ratings
same,ratings of “feel drug effect” compared to placebo,"[5]; morphine 10 and 20 mg IV, over 5 minutes",significantly increased
same,ratings on the ARCI-MBG scale,[5]; morphine 20 mg IV,increased ratings
CN(C)C[C@H]1CCCC[C@]1(O)c1cccc(O)c1 [tramadol M1 metabolite],"Cmin, tramadol M1 metabolite, Mean ± SD",[6]; [12],55.9 ± 7.4 ng/mL
same,"Trough Peak, tramadol M1 metabolite, Mean ± SD",[6]; [12],0.715 ± 0.044 ratio
same,"Cmin, tramadol M1 metabolite, Mean ± SD",[6]; [13],65.9 ± 15.8 ng/mL
same,"Trough Peak, tramadol M1 metabolite, Mean ± SD",[6]; [13],0.670 ± 0.061 ratio
same,"Cmin, tramadol M1 metabolite, Mean ± SD",[6]; [14],130 ± 37 ng/mL
same,"Trough Peak, tramadol M1 metabolite, Mean ± SD",[6]; [14],0.795 ± 0.040 ratio
same,"Cmin, tramadol M1 metabolite, Mean ± SD",[6]; [15],93.6 ± 34.6 ng/mL
same,"Trough Peak, tramadol M1 metabolite, Mean ± SD",[6]; [15],0.707 ± 0.080 ratio
(+)-O-desmethyltramadol [(+)-M1],AUC,[7],1258 ± 410 ng·h/mL
same,Cmax,[7],147 ± 39 ng/mL
same,Tmax,[7],1.6 ± 0.5 h
same,t1/2,[7],6.0 ± 1.0 h
